From PMC10252594 (Cancers, 2023)
Marks after values point to notes of the source that are not given here.

Columns and labels:
[1] = system: androgen-dependent and androgen-independent PC cell lines; details: cited from earlier work
[2] = system: LAPC-4 xenografts
Text: The xenograft experiment was approved by the Université Laval Animal Care Committee (Comité de Protection des Animaux de l’Université Laval, Québec, QC, Canada) and carried out in an animal facility approved by the Canadian Council on Animal Care (CCAC). Homozygous male Balb/c athymic nude mice (~42 days old, weighing approximately 28 g) were obtained from Charles River Inc. (Saint-Constant, QC, Canada) and housed (4 to 5) in vinyl micro-isolated ventilated cages equipped with air lids. Cages were kept in laminar airflow hoods and maintained in pathogen-limiting conditions. The animals were housed under a controlled environment at 22 ± 3 °C with 50 ± 20% relative humidity and light set at 12 h/day (light on at 07:15) during the acclimatization and study periods. Sterile water and rodent food (Rodent Diet #T.2018.15, Harlan Teklad, Madison, WI, USA) were provided ad libitum.
After an acclimatization period of 5 days, the mice were inoculated into both flanks by subcutaneous (SC) injection of 4 × 10^6 LAPC-4 cells (Passage 14) in 0.1 mL of growth medium containing 50% Matrigel (BD Biosciences, Mississauga, ON, Canada) via a 2.5-cm long 22-gauge needle. Two weeks later, mice that developed tumors were randomized according to tumor volume, divided into […] groups (Gr-1 to Gr-8), and treated over a period of 28 days. A bilateral orchiectomy was performed under isoflurane-induced anesthesia for Gr-1 but not for Gr-2 to Gr-8. Both Gr-1 (CTX control (CTL), 9 mice, 16 tumors) and Gr-2 (intact CTL, 9 mice, 18 tumors) were treated with 0.1 mL of the vehicle alone (8% DMSO/92% propylene glycol (PG) administered by gavage (PO). Gr-3 (30 mg/kg/PO, 10 mice, 19 tumors) received 0.843 mg of RM-581. Gr-4 (10 mg/kg/PO, 10 mice, 20 tumors) received 0.281 mg of RM-581. Gr-5 (3 mg/kg/PO, 10 mice, 18 tumors) received 0.084 mg of RM-581. Gr-6 (60 mg/kg/SC, 9 mice, 18 tumors) received 1.686 mg of abiraterone. Gr-7 (60 mg/kg/PO, 9 mice, 17 tumors) received 1.686 mg of abiraterone acetate. Gr-8 (4 mg/kg/IP, 9 mice, 17 tumors) received 0.112 mg of docetaxel.
RM-581 and abiraterone acetate were administered six days a week PO; abiraterone was administered six days a week SC; and docetaxel was administered twice a week by intraperitoneal (IP) injection. RM-581 was first dissolved in DMSO, and thereafter we added PG to obtain the appropriate concentration in the vehicle fluid (8% DMSO/92% PG). Abiraterone acetate and abiraterone were dissolved in 0.3% hydroxypropyl cellulose in saline (0.9% NaCl), while docetaxel was first dissolved in DMSO, and thereafter we added phosphate-buffered saline (PBS) to obtain the proper concentration in the carrier fluid (0.5% DMSO/99.5% PBS). All solutions were prepared one day prior to the initiation of treatment and stored at 4 °C under constant agitation.
The mice were weighed at the start and end of the protocol. Tumor area (mm^2) was calculated twice a week using two perpendicular diameters (L and W), which were recorded using a caliper, and the formula L/2 × W/2 × π. The area measured on the first day of treatment was fixed at 100%. At the end of the studies and 3 h after the last treatment, the mice were terminally anesthetized, and their final body weights were measured. Tumors, liver, kidney, and total prostate were collected from mice during necropsy, while blood was collected by cardiac puncture. Tissues and plasma were immediately frozen at −80 °C until analysis.

[3] = system: LAPC-4 cells; test: LAPC-4 cell viability proliferation and combination index assays (MTS, 6 days); type: cell-based, human; details: LAPC-4, six days
Experimental: LAPC-4 cells (1 × 10^4 cells/well) were seeded in triplicate in 96-well plates in IMDM (Iscove’s modified Dulbecco’s medium) (90 μL) supplemented (v/v) with 5% fetal FBS, 1% L-glutamine, 1% insulin, and 1% penicillin/streptomycin. The cells were incubated at 37 °C in a 5% CO2 humidified atmosphere for 24 h. […] After 6 days of incubation, the cell proliferation was determined by adding 10 µL of MTS followed by incubation at 37 °C for 4 h. Plates were then analyzed at 490 nm using a Tecan M-200 microplate reader (Männedorf, Switzerland). Using GraphPad Prism 7 software, the IC50 values were calculated. The values represent the average of two independent experiments performed in triplicate. According to the Chou–Talalay method and using the following formula, the CI (combination) was calculated. CI=(D)1/(DX)1+(D)2/(DX)2
Denominators (DX)l and (DX)2 are the doses of individual drugs required to achieve a given effect level, and numerators (D)1 and (D)2 are the concentrations of each drug present in combination to trigger the same effect level. When the drugs interact additively, CI = 1, but a CI < 1 indicates a synergistic interaction, and a CI > 1 indicates an antagonistic effect.

[4] = system: LAPC-4 cells; test: Total cholesterol in LAPC-4 cells (kit); type: cell-based, human; details: 18, 36, or 72 h; RM-581 2 μM or atorvastatin 10 μM
Experimental: A cholesterol quantification kit provided by Sigma-Aldrich (Catalog Number MAK043) was used following the manufacturer’s instructions to determine the concentration of total cholesterol, free cholesterol, and cholesteryl ester in samples. The cholesterol contents were measured in samples from two different protocols. […] Secondly, in tumor, liver, and plasma obtained at the end of the LAPC-4 xenograft experiment (control group and the group treated with RM-581 at 10 mg/kg/PO).

[5] = system: LAPC-4 cells; test: Gene expression study by qPCR; type: cell-based, human; details: RM-581 5 µM or atorvastatin 10 µM, CTL fixed at 1.0
Experimental: LAPC-4 cells (3 × 10^5) were treated with RM-581 (1, 2, and 5 µM) at different times (6, 18, 24, and 36 h) and the expression of various genes was determined as previously reported. Primer sequences used for the analysis of each gene are reported in Table S3 (Supplementary Materials).

[6] = system: PC-3 xenograft; set-up: method as in PMID 34681843; details: PC-3 xenograft, 4 mg/kg IP; cited from earlier work
[7] = system: LNCaP (AR+) cells; set-up: method as in earlier work; details: ref 52 Furuya et al.; cited from earlier work
[8] = system: PC-3 (AR−) cells; set-up: method as in earlier work; details: ref 52 Furuya et al.; cited from earlier work

CC(=O)O[C@H]1CC[C@@]2(C)C(=CC[C@@H]3[C@@H]2CC[C@]2(C)C(c4cccnc4)=CC[C@@H]32)C1 [abiraterone acetate, reference compound]
IC50 [1]: > 10 µM | effect on tumor compared to intact group ([2]; 60 mg/kg PO, day 28): no longer significant

C[C@]12CC[C@H](O)CC1=CC[C@@H]1[C@@H]2CC[C@]2(C)C(c3cccnc3)=CC[C@@H]12 [abiraterone, reference compound]
IC50 ([3]; Homo sapiens, LAPC4, 144 h, single drugs and 1:1 combinations, read-out: IC50 (Figure 2B)): 11.5 µM | day of significantly different effect vs intact control ([2]; 60 mg/kg SC): 18 days | tumor reduction compared to intact control group ([2]; 60 mg/kg SC, 6 days a week, day 28): 40%

CC(C)c1c(C(=O)Nc2ccccc2)c(-c2ccccc2)c(-c2ccc(F)cc2)n1CC[C@@H](O)C[C@@H](O)CC(=O)O [atorvastatin, reference compound]
Total cholesterol in LAPC-4 cells vs untreated cells [4]: did not show a significant difference | ACAT1 mRNA expression ([5]; 6 h): 1.0 | ACLY mRNA expression ([5]; 6 h): 1.0 | FASN mRNA expression ([5]; 6 h): 1.2 | HMGCR mRNA expression ([5]; 6 h): 1.4 * | HMGCS1 mRNA expression ([5]; 6 h): 1.3 | LDLR mRNA expression ([5]; 6 h): 1.0 | MVD mRNA expression ([5]; 6 h): 1.6 * | MVK mRNA expression ([5]; 6 h): 1.5 | SCD1 mRNA expression ([5]; 6 h): 1.4 | ACAT1 mRNA expression ([5]; 18 h): 1.0 | ACLY mRNA expression ([5]; 18 h): 1.2 | FASN mRNA expression ([5]; 18 h): 1.3 | HMGCR mRNA expression ([5]; 18 h): 1.8 * | HMGCS1 mRNA expression ([5]; 18 h): 3.5 * | LDLR mRNA expression ([5]; 18 h): 1.8 * | MVD mRNA expression ([5]; 18 h): 2.6 * | MVK mRNA expression ([5]; 18 h): 2.0 * | SCD1 mRNA expression ([5]; 18 h): 1.6 * | ACAT1 mRNA expression ([5]; 24 h): 1.0 | ACLY mRNA expression ([5]; 24 h): 1.9 * | FASN mRNA expression ([5]; 24 h): 1.7 * | HMGCR mRNA expression ([5]; 24 h): 2.6 * | HMGCS1 mRNA expression ([5]; 24 h): 2.7 * | LDLR mRNA expression ([5]; 24 h): 1.8 * | MVD mRNA expression ([5]; 24 h): 3.5 * | MVK mRNA expression ([5]; 24 h): 2.5 * | SCD1 mRNA expression ([5]; 24 h): 2.6 * | ACAT1 mRNA expression ([5]; 36 h): 1.1 | ACLY mRNA expression ([5]; 36 h): 2.2 * | FASN mRNA expression ([5]; 36 h): 1.8 * | HMGCR mRNA expression ([5]; 36 h): 3.5 * | HMGCS1 mRNA expression ([5]; 36 h): 2.0 * | LDLR mRNA expression ([5]; 36 h): 2.5 * | MVD mRNA expression ([5]; 36 h): 4.0 * | MVK mRNA expression ([5]; 36 h): 2.5 * | SCD1 mRNA expression ([5]; 36 h): 4.5 *

CC(=O)O[C@@]12CO[C@@H]1C[C@H](O)[C@@]1(C)C(=O)[C@H](O)C3=C(C)[C@@H](OC(=O)[C@H](O)[C@@H](NC(=O)OC(C)(C)C)c4ccccc4)C[C@@](O)([C@@H](OC(=O)c4ccccc4)[C@H]21)C3(C)C [docetaxel, reference compound]
cell growth plateau ([3]; between 0.01 and 10 µM): around 25% | effect on tumor growth ([2]; 4 mg/kg IP twice a week): no significant effect | block of tumor growth [6]: 35%

CCC(C)(C)C(=O)O[C@H]1C[C@@H](C)C=C2C=C[C@H](C)[C@H](CC[C@@H]3C[C@@H](O)CC(=O)O3)[C@H]21 [simvastatin]
LDLR expression [7]: increased | intracellular cholesterol ratio [7]: without affecting | LDLR expression [8]: decreased | intracellular cholesterol ratio [8]: decreased
